Results on two compounds are retold here after patent US5130120A, “Paramagnetic DTPA and EDTA alkoxyalkylamide complexes as MRI agents” (Mallinckrodt Medical, Inc., priority 1988, dated 1992).

The structures appear in SMILES notation.

Series [1] is described as follows: T1 and T2 relaxivity, RADX (10 megahertz) NMR analyzer, 37° C. It counts as physicochemical. The protocol: T1 and T2 relaxivity curves of the complex of Example II were obtained using a RADX (10 megahertz) NMR analyzer. The RADX analyzer was thermally stabilized at 37° C. before performing any T1 or T2 measurements. Overall range tuning and mid-range calibration were performed on a 37° C. warmed T1 standard at the beginning of the experiment, according to manufacturer's instructions. Subsequent to calibration, T1 standards were tested to verify calibration and linearity.
Ten millimolar solutions of the complex were prepared in sterile water for injection ("SWFI") and in 4% human serum albumin ("HSA")/0.9% NaCl. A series of lower concentrations (0.25, 0.50, 1.0, 2.5 and 5.0 mM) were prepared to form a concentration curve. A sample of each prepared concentration was warmed to 37° C. in an NMR sample tube prior to assay. Triplicate T1 and T2 values were obtained on each dilution.
Separate linear regressions were determined using the reciprocal T1 and T2 mean values for the complex diluted in SWFI and 4% HSA. The relaxivity curves were generated by plotting the reciprocal T1 or T2 value against concentration. The following relaxation rates were determined for the complex of Example II: […]

The next series has as its system ICR mice. Description: acute intravenous toxicity (LD50) in ICR mice, 7-day observation. It counts as in vivo. To be noted: for Deaths, Delayed (1-24 hr) / Deaths, Delayed (1-7 days) / Deaths, Immediate (0-1 hr) / Deaths, Total / Body Weight Change: 0.68 M; for Deaths, Total: deaths/animals. The protocol:
The acute intravenous toxicity of the compound of Example II was determined as follows: ICR mice, at 1 to 4 per dose level, received single intravenous injections of the test substance via a lateral tail vein at the rate of approximately 1 ml/minute. The test substances were at concentrations chosen to result in dose volumes of 5 to 75 ml/kg body weight. Dosing began at a volume of 10 ml/kg. Dose adjustments up or down were made to closely bracket the estimated LD50 with 4 animals per group (2 males and 2 females). Observations of the mice were recorded at times 0, 0.5, 1,2,4 and 24 hours and once daily thereafter for up to 7 days post injection. On the 7th day post injection, the mice were euthanized, weighed and necropsied. Abnormal tissues were noted. At this time a decision was made as to whether any histopathology was to be performed and whether or not the tissues should be retained. Necropsies were also performed on mice expiring after 24 hours post-injection, except for dead mice found on the weekends. The LD50 values, along with 95% CI were calculated using a modified Behrens-Reed-Meunch method. The results for the complex of Example II are reported below:
Sex and Weight Range of Mice: Males(18.0-20.3 g) Females (19.0-21.7 g).

Another series can be described thus: solubility in water. It counts as physicochemical. To be noted: glassy solid. The protocol: A 15% excess of the bis(2-methoxyethylamide) of EDTA produced by the procedure described in Example XI (1.1 g, 0.0026 mol) was dissolved in water (10 ml) and MnCO3 (0.27 g, 0.0023 mol) was added. Upon warming for 30 minutes, the solution became homogeneous. The solution was taken to dryness under reduced pressure.

As usually defined, the LD50 is the dose expected to kill half of the subjects tested. For the compound `COCCNC(=O)CN(CCN(CCN(CC(=O)[O-])CC(=O)NCCOC)CC(=O)[O-])CC(=O)[O-].[Gd+3]` [Example II, {N,N"-Bis[N-(2-methoxyethyl)-carbamoylmethyl]diethylenetriamine-N,N',N"-triaceto}gadolinium (III)], the “T1 Relaxation Rate” value in series [1] (4% HSA/0.9% NaCl) was found to be 4400 M⁻¹ s⁻¹; in series [1] (H2O (SWFI)), 4690 M⁻¹ s⁻¹. In addition, the “T2 Relaxation Rate” value in series [1] (4% HSA/0.9% NaCl) amounted to 6380 M⁻¹ s⁻¹; in series [1] (H2O (SWFI)), 4810 M⁻¹ s⁻¹. Further, the “Deaths, Delayed (1-24 hr)” value in the series with ICR mice (6.8 mmol/kg i.v., ICR mice) was 0; in the series with ICR mice (13.6 mmol/kg i.v., ICR mice), 0; with ICR mice (20.4 mmol/kg i.v., ICR mice), 0; with ICR mice (27.2 mmol/kg i.v., ICR mice), 0. The “Deaths, Delayed (1-7 days)” value in the series with ICR mice (6.8 mmol/kg i.v., ICR mice) is on record as 0; with ICR mice (13.6 mmol/kg i.v., ICR mice), 0; with ICR mice (20.4 mmol/kg i.v., ICR mice), 0. Moreover, the “Deaths, Immediate (0-1 hr)” value came out at 0 in the series with ICR mice (6.8 mmol/kg i.v., ICR mice); 0 in the series on ICR mice (13.6 mmol/kg i.v., ICR mice); 1 with ICR mice (20.4 mmol/kg i.v., ICR mice); 2 in the series on ICR mice (27.2 mmol/kg i.v., ICR mice); 4 in the series on ICR mice (34.0 mmol/kg i.v., ICR mice). Further, the “Deaths, Total” value is 0/2 with ICR mice (6.8 mmol/kg i.v., ICR mice); 0/2 with ICR mice (13.6 mmol/kg i.v., ICR mice); 1/4 in the series on ICR mice (20.4 mmol/kg i.v., ICR mice); 4/4 in the series on ICR mice (27.2 mmol/kg i.v., ICR mice); 4/4 in the series on ICR mice (34.0 mmol/kg i.v., ICR mice). For the same compound, the “Body Weight Change” value in the series with ICR mice (6.8 mmol/kg i.v., female ICR mice) was “+2.1 g”; in the series with ICR mice (6.8 mmol/kg i.v., male ICR mice) it was -1.1 g; in the series on ICR mice (13.6 mmol/kg i.v., female ICR mice), “+1.4 g”; with ICR mice (13.6 mmol/kg i.v., male ICR mice) it was “+1.6 g”; in the series on ICR mice (20.4 mmol/kg i.v., female ICR mice) it was -3.2 g; in the series with ICR mice (20.4 mmol/kg i.v., male ICR mice) it was -1.1 g. The “body weight gain of surviving mice” value in the series on ICR mice (7-day post-injection period, i.v., ICR mice) was “failed to gain weight”. For the same compound, the “95% Confidence Limits of LD50” value in the series on ICR mice (ICR mice, single i.v., 7 days) is 17.4 to 29.0 mmol/kg. The same compound displayed an LD50 with ICR mice (ICR mice, single i.v., 7 days post injection, modified Behrens-Reed-Meunch method) of 22.5 mmol/kg. Moreover, the “gross organ abnormality at necropsy” value in the series with ICR mice (one female dosed with 20.4 mmol/kg i.v.) is “a "pale" colored liver”. The “gross organ abnormality at necropsy, other mice” value with ICR mice (other mice at 20.4 mmol/kg or lower, i.v.) is reported as “No other mice at 20.4 mmol/kg or lower showed similar abnormalities”. The “order of i.v. toxicity” value with ICR mice (preliminary tests, ICR mice) is recorded as “low order of i.v. toxicity”.
Take `COCCNC(=O)CN(CCN(CC(=O)[O-])CC(=O)NCCOC)CC(=O)[O-].[Mn+2]` [Example X, {N,N'-Bis[N-(2-methoxyethyl)carbamoyl-methyl]-ethylenediamine-N,N'-diaceto}manganese(II)]: in “solubility in water”, the solubility in water entry is on record as “very soluble in water”.
